Test results: patent US5646246A, “Isolation and structural elucidation of the human cancer cell growth inhibitory cyclic peptides phakellistatin 4, 5, 6, 7, 8 and 9” (Arizona Board of Regents acting on behalf of Arizona State …, priority 1994, dated 1997)
Converted amounts (≈) assume the structure as drawn. Where a SMILES comes first, the peptide text is derived from it.

Assays:
Assay type in all cases: cell-based
[1] = system: NCI human cancer cell line panel; experiment: NCI human cancer cell line panel, in vitro primary screen; conditions: for in vitro growth inhibitory activity against human cancer cell lines: result in words
Description: Current research in the control of cancer in the U.S. is coordinated by the National Cancer Institute (NCI). To determine whether a substance has anti-cancer properties, the NCI has established a systematic protocol. This protocol, which involves the testing of a substance against a standard cell line panel containing 60 human tumor cell lines, has been verified and is accepted in scientific circles. The protocol, and the established statistical means for analyzing the results obtained by the standardized testing are fully described in the literature. See: Boyd, Dr. Michael R., Principles & Practice of Oncology, PPO Updates, Volume 3, Number 10, October 1989, for a general overview of the testing protocol; Monks, Anne et al., "Feasibility of a High-Flux Anticancer Drug Screen Using a Diverse Panel of Cultured Human Tumor Cell Lines", 83 J. Nat. Cancer Inst., No. 11, 757 (1991); and Paull, K. D., "Display and Analysis of Patterns of Differential Activity of Drugs Against Human Tumor Cell Lines; Development of Mean Graph and COMPARE Algorithm", 81 Journal of the National Cancer Institute Reports, No. 14, 1088, (1989), for a description of the methods of statistical analysis. Each of these references are incorporated herein by this reference thereto.
(§1) ED50 (P388) and GI50 (HTCL) are the drug doses needed to reduce the percent growth to 50%. There is no mathematical difference between ED50 and GI50, which are both calculated using the same formula. The only difference is historical usage. TGI, (Total Growth Inhibition), is the drug dose needed to yield zero percent growth, i.e., just as many cells at the end of the experiment as were present in the beginning. Whether just as many cells were killed as were produced (steady state), or no growth occurred (total inhibition), cannot be distinguished.
LC50, (Lethal Concentration 50%), is the drug concentration which reduces growth to -50%, i.e., removes half of the cells originally present at the beginning of the experiment.
(§2) Each drug is tested at five (5) doses: 100--10--1--0.1--0.01 μg/ml. Percent Growths are calculated for each dose. The two (or three) doses with growth values above, below, (or near to) 50% growth are used to calculate the ED50 /GI50 using a linear regression formula. The log of the dose is used during the regression computation. If no dose yields a growth value under 50%, the results are expressed as: ED50 >(highest dose). If no dose yields growth higher than 50% growth, then ED50 <(lowest dose). Similar calculations are performed for the TGI at 0% growth, and at -50% growth for the LC50.
(§3) At the start of an experiment, cells from the in vitro cell cultures are inoculated into the appropriate tubes or microtiter plates. One set of control tubes/plates is immediately counted to determine the number of cells at the start of the experiment. This is the "baseline count", or "Tzero reading". At the end of the experiment (48 hours later), a second set of control tubes/plates is analyzed to determine the "Control Growth" value. The growth (or death) of cells relative to the initial quantity of cells is used to define the "Percent of Growth".

[2] = system: murine lymphocytic leukemia P388; experiment: in vitro murine P388 lymphocytic leukemia cell growth inhibition; conditions: dose reducing percent growth to 50%
Description: The following measures are used to express drug activity by giving the drug dose which reduces cell growth to a specified percentage of growth:
as §1, §2, §3

KM20L2 = experiment: human cancer cell line growth inhibition, colon KM20L2
Description: as §1
(§4) Each drug is tested at five (5) doses: 100--10--1--0.1--0.01 μg/ml. Percent Growths are calculated for each dose. The two (or three) doses with growth values above, below, (or near to) 50% growth are used to calculate the ED50 /GI50 using a linear regression formula. […]
as §3

SF-295 = experiment: human cancer cell line growth inhibition, CNS SF-295
Description: as §1, §4, §3

SK-MEL-5 = experiment: human cancer cell line growth inhibition, melanoma SK-MEL-5
Description: as §1, §4, §3

A498 = experiment: human cancer cell line growth inhibition, renal A498
Description: as §1, §4, §3

NCI-H460 = experiment: human cancer cell line growth inhibition, lung NCI-H460
Description: as §1, §4, §3

OVCAR-3 = experiment: human cancer cell line growth inhibition, ovarian OVCAR-3
Description: as §1, §4, §3

Structure (SMILES)	in vitro growth inhibitory activity against human cancer cell lines [1]	ED50 (P388) [2]	GI50 colon KM20L2 (KM20L2)	GI50 CNS SF-295 (SF-295)	GI50 melanoma SK-MEL-5 (SK-MEL-5)	GI50 renal A498 (A498)	GI50 lung NCI-H460 (NCI-H460)	GI50 ovarian OVCAR-3 (OVCAR-3)	GI50 ([1]; NCI human cancer cell line panel, quadruplicate experiments)
CC[C@H](C)[C@@H]1NC(=O)[C@@H]2CCCN2C(=O)[C@@H]2CCCN2C(=O)[C@H]([C@@H](C)CC)NC(=O)[C@H](Cc2ccc(O)cc2)NC(=O)[C@@H]2CCCN2C(=O)[C@@H]2CCCN2C(=O)[C@H](CC(C)C)NC(=O)[C@H](C(C)C)NC(=O)[C@H](Cc2ccccc2)NC1=O [phakellistatin 8, cyclo-(Pro-Pro-Ile-Phe-Val-Leu-Pro-Pro-Tyr-Ile)] (cyclo(FVLPPYIPPI))	growth inhibitory activity was also demonstrated	4.1 mg/L (≈ 3.6 µM)							
CC[C@H](C)[C@@H]1NC(=O)[C@@H]2CCCN2C(=O)[C@@H]2CCCN2C(=O)[C@H](C(C)C)NC(=O)[C@H](Cc2ccc(O)cc2)NC(=O)[C@@H]2CCCN2C(=O)[C@@H]2CCCN2C(=O)[C@H](CC(C)C)NC(=O)[C@H](C(C)C)NC(=O)[C@H](Cc2ccccc2)NC1=O [phakellistatin 9, cyclo-(Pro-Pro-Ile-Phe-Val-Leu-Pro-Pro-Tyr-Val)] (cyclo(FVLPPYVPPI))	growth inhibitory activity was also demonstrated	1.7 mg/L (≈ 1.51 µM)							
CC[C@H](C)[C@@H]1NC(=O)[C@@H]2CCCN2C(=O)[C@H](CC(C)C)NC(=O)C(Cc2c[nH]c3ccccc23)NC(=O)[C@@H]2CCCN2C(=O)[C@H](Cc2ccccc2)NC(=O)[C@@H]2CCCN2C1=O (stereo partly drawn) [phakellistatin 6, cyclo-(Pro-Trp-Leu-Pro-Ile-Pro-Phe)]	growth inhibitory activity was also demonstrated	0.18 mg/L (≈ 0.212 µM)	0.021 mg/L (≈ 0.0247 µM)	0.041 mg/L (≈ 0.0482 µM)	0.032 mg/L (≈ 0.0376 µM)	0.078 mg/L (≈ 0.0917 µM)	0.019 mg/L (≈ 0.0223 µM)	0.025 mg/L (≈ 0.0294 µM)	
CC[C@H](C)[C@@H]1NC(=O)[C@@H]2CCCN2C(=O)[C@@H]2CCCN2C(=O)[C@H]([C@@H](C)CC)NC(=O)[C@H](Cc2ccc(O)cc2)NC(=O)[C@@H]2CCCN2C(=O)[C@@H]2CCCN2C(=O)[C@H](CC(C)C)NC(=O)[C@H](C)NC(=O)[C@H](Cc2ccccc2)NC1=O [phakellistatin 7, cyclo-(Pro-Pro-Ile-Phe-Ala-Leu-Pro-Pro-Tyr-Ile)] (cyclo(ALPPYIPPIF))	growth inhibitory activity was also demonstrated	3.0 mg/L (≈ 2.7 µM)							
CC[C@H](C)[C@@H]1NC(=O)[C@H](C)NC(=O)[C@H](CCSC)NC(=O)[C@H](C)NC(=O)[C@@H](CC(N)=O)NC(=O)[C@H](Cc2ccccc2)NC(=O)[C@@H]2CCCN2C1=O [phakellistatin 5, cyclo-(Pro-Phe-Asn-Ala-Met-Ala-Ile)]	growth inhibitory activity was also demonstrated	0.23 mg/L (≈ 0.309 µM)							~3 µM
